Patent US12077483B2, “Modified amine lipids” (Intellia Therapeutics, Inc., priority 2018, dated 2024)

What was measured:
[1] = pKa of amine lipid by TNS fluorescence; type: physicochemical; details: probe TNS (6-(p-toluidino)-2-naphthalenesulfonic acid sodium salt), unformulated amine lipid in ethanol, sodium phosphate buffers -9.0
How it was run: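 Unformulated amine lipid, about 100 μM final, in 0.1 M sodium phosphate buffers spanning pH 4.5–9.0 with TNS. Fluorescence read at ex 321/em 448 nm; normalized data fitted sigmoidally to give pKa.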

mouse TTR = assay: Serum TTR ELISA in mice after LNP delivery; type: in vivo; details: Table 3, guide G282, CD-1 female mice, 0.1 mpk i.v.; for Serum TTR: Exp. 1, 8, 9, 10; for Serum TTR % TSS: percentage of vehicle control (TSS)
How it was run: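 Female CD-1 mice received LNP at 0.1 mpk unless noted; serum was collected 6 or 7 days later. Total serum TTR was measured by mouse prealbumin ELISA at 10,000- and/or 2,500-fold dilution and is expressed as a percentage of vehicle control.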

mouse TTR gene = assay: In vivo editing in mouse liver, LNP with Cas9 mRNA and sgRNA G282, NGS; details: Table 3; guide G282; CD-1 female mice, 0.1 mpk i.v., liver at 6 or 7 days; Exp. 1, 8, 9, 10
Protocol: (§1) LNPs were prepared using various amine lipids in a 4-component lipid system consisting of an ionizable lipid (e.g. an amine lipid), DSPC, cholesterol and PEG-2k-DMG. In assays for percent liver editing in mice, Cas9 mRNA and chemically modified sgRNA targeting a mouse sequence were formulated in LNPs, at either a 1:1 w/w ratio or a 1:2 w/w ratio.
(§2) The lipid components were dissolved in 100% ethanol with the lipid component molar ratios described below. The chemically modified sgRNA and Cas9 mRNA were combined and dissolved in 25 mM citrate, 100 mM NaCl, pH 5.0, resulting in a concentration of total RNA cargo of approximately 0.45 mg/mL. The LNPs were formulated with an N/P ratio of about 6, with the ratio of chemically modified sgRNA: Cas9 mRNA at either a 1:1 or 1:2 w/w ratio as described below.
(§3) CD-1 female mice, ranging from 6-10 weeks of age were used in each study. Animals were weighed and grouped according to body weight for preparing dosing solutions based on group average weight. LNPs were dosed via the lateral tail vein in a volume of 0.2 mL per animal (approximately 10 mL per kilogram body weight). The animals were periodically observed for adverse effects for at least 24 hours post dose.
(§4) For studies measuring in vivo editing in liver, CD-1 female mice were dosed at 0.1 mpk unless otherwise noted. Animals were euthanized at 6 or 7 days by exsanguinationvia cardiac puncture under isoflourane anesthesia. Liver tissue was collected from each animal for DNA extraction and analysis. Blood was collected into serum separator tubes or into tubes containing buffered sodium citrate for plasma as described herein. Cohorts of mice were measured for editing by Next-Generation Sequencing (NGS).
(§5) In brief, to quantitatively determine the efficiency of editing at the target location in the genome, genomic DNA was isolated and deep sequencing was utilized to identify the presence of insertions and deletions introduced by gene editing.
(§6) PCR primers were designed around the target site (e.g., B2M), and the genomic area of interest was amplified. Additional PCR was performed according to the manufacturer's protocols (Illumina) to add the necessary chemistry for sequencing. The amplicons were sequenced on an Illumina MiSeq instrument. The reads were aligned to the relevant reference genome (e.g., GRCm38) after eliminating those having low quality scores. The resulting files containing the reads were mapped to the reference genome (BAM files), where reads that overlapped the target region of interest were selected and the number of wild type reads versus the number of reads which contain an insertion, substitution, or deletion was calculated.
(§7) The editing percentage (e.g., the “editing efficiency” or “percent editing”) is defined as the total number of sequence reads with insertions or deletions over the total number of sequence reads, including wild type.
(§8) We assessed in vivo editing efficiency for materials delivered with formulations including various amine lipid compounds. Editing was measured using either G282 (SEQ ID No: 1) which targets the mouse TTR gene or G650 (SEQ ID No. 2) which targets the mouse B2M gene. Lipids described above were assessed for efficacy through in vivo editing experiments. LNPs were formulated at a 1:1 w/w ratio of sgRNA to Cas9 mRNA, and at an N/P ratio of about 6. Molar concentrations of lipids in the lipid component of the LNPs are expressed as mol % amine lipid/DSPC/cholesterol/PEG-2k-DMG, e.g. 50/10/38.5/1.5. The final LNPs were characterized to determine the encapsulation efficiency, polydispersity index, and average particle size according to the analytical methods provided above. Analysis of average particle size, polydispersity (PDI), total RNA content and encapsulation efficiency of RNA are shown in Table 2.
To assess whether the editing was dose responsive, experiments were performed in vivo at various LNP dose levels. […]

mouse B2M gene = assay: In vivo editing in mouse liver, LNP with Cas9 mRNA and sgRNA G650, NGS; details: Table 3; guide G650; CD-1 female mice, 0.1 mpk i.v., liver at 6 or 7 days; Exp. 2-7
Protocol: as §1, §2, §3, §4, §5, §6, §7, §8

| Structure (SMILES) | pKa [1] | Serum TTR (mouse TTR) [µg/mL] | Serum TTR % TSS (mouse TTR) [% TSS] | Editing Mean % Indel (mouse TTR gene) [%] | Editing Mean % Indel (mouse B2M gene) [%] |
| --- | --- | --- | --- | --- | --- |
| CCCCC/C=C\C/C=C\CCCCCCCC(=O)OCC(COC(=O)CCCCCCC/C=C\C/C=C\CCCCC)OC(=O)CCC(CCCCCCCC)OC(=O)N(C)CCN(C)C (centres unmarked) [Compound 38, 2-((4-(((2-(dimethylamino)ethyl)(methyl)carbamoyl)oxy)dodecanoyl)oxy) propane-1,3-diyl (9Z,9′Z,12Z,12′Z)-bis(octadeca-9,12-dienoate)] | 5.62 | 301 | 39 | 26.7 |  |
| CCCCC/C=C\C/C=C\CCCCCCCC(=O)OCC(COC(=O)CCCCCCC/C=C\C/C=C\CCCCC)OC(=O)CCC(CCCCCCCCCCCC)OC(=O)NCCCN(C)C (centres unmarked) [Compound 8, 2-((4-(((3-(dimethylamino)propyl)carbamoyl)oxy)hexadecanoyl)oxy)propane-1,3-diyl] | 7.54 | 745 | 84 | 0.1 |  |
| CCCCC/C=C\C/C=C\CCCCCCCC(=O)OCC(COC(=O)CCCCCCC/C=C\C/C=C\CCCCC)OC(=O)CCCC(CCCCCCCCCCCC)OC(=O)OCCCN(C)C (centres unmarked) [Compound 25, 2-((5-(((3-(dimethylamino)propoxy)carbonyl)oxy)heptadecanoyl)oxy)propane-1,3-diyl (9Z,9′Z,12Z,12′Z)-bis(octadeca-9,12-dienoate)] | 6.12 |  |  |  | 10.2 |
| CCCCC/C=C\C/C=C\CCCCCCCC(=O)OCC(COC(=O)CCCCCCC/C=C\C/C=C\CCCCC)OC(=O)CCC(CCCCCCCCCCCCCCCC)OC(=O)OCCCN(C)CC (centres unmarked) [Compound 18, 2-((4-(((3-(ethyl(methyl)amino)propoxy)carbonyl)oxy)icosanoyl)oxy)propane-1,3-diyl (9Z,9′Z,12Z,12′Z)-bis(octadeca-9,12-dienoate)] | 5.83 |  |  |  | 4.5 |
| CCCCC/C=C\C/C=C\CCCCCCCC(=O)OCC(COC(=O)CCCCCCC/C=C\C/C=C\CCCCC)OC(=O)CCC(CCCCCCCCCCCCCCCC)OC(=O)OCCCN(C)C (centres unmarked) [Compound 17, 2-((4-(((3-(dimethylamino)propoxy)carbonyl)oxy)icosanoyl)oxy)propane-1,3-diyl (9Z,9′Z,12Z,12′Z)-bis(octadeca-9,12-dienoate)] | 6.18 |  |  |  | 12.3 |
| CCCCC/C=C\C/C=C\CCCCCCCC(=O)OCC(COC(=O)CCCCCCC/C=C\C/C=C\CCCCC)OC(=O)CCC(CCCCCCCCCCCC)OC(=O)C1(C)CCN(C)CC1 (centres unmarked) [Compound 10, 2-((4-((1,4-dimethylpiperidine-4-carbonyl)oxy)hexadecanoyl)oxy)propane-1,3-diyl (9Z,9′Z,12Z,12′Z)-bis(octadeca-9,12-dienoate)] | 6.05 |  |  |  | 5.3 |
| CCCCC/C=C\C/C=C\CCCCCCCC(=O)OCC(COC(=O)CCCCCCC/C=C\C/C=C\CCCCC)OC(=O)CCC(CCCCCCCCCCCC)OC(=O)NCCN(C)C (centres unmarked) [Compound 12, 2-((4-(((2-(dimethylamino)ethyl)carbamoyl)oxy)hexadecanoyl)oxy)propane-1,3-diyl (9Z,9′Z,12Z,12′Z)-bis(octadeca-9,12-dienoate)] | 6.82 |  |  |  | 5.5 |
| CCCCC/C=C\C/C=C\CCCCCCCC(=O)OCC(COC(=O)CCCCCCC/C=C\C/C=C\CCCCC)OC(=O)CCC(CCCCCCCC)OC(=O)OCCCN(C)C (centres unmarked) [Compound 31, 2-((4-(((3-(dimethylamino)propoxy)carbonyl)oxy)dodecanoyl)oxy)propane-1,3-diyl (9Z,9′Z,12Z,12′Z)-bis(octadeca-9,12-dienoate)] | 6.28 |  |  |  | 15.6 |
